According to ChEMBL document CHEMBL4613236, “Magnoflorine from Coptis chinese has the potential to treat DNCB-induced Atopic dermatits by inhibiting apoptosis of keratinocyte” (Bioorg Med Chem, 2020):
The source made the active and inactive calls. No cut-off for these calls is given here.

What was measured:
HaCaT [1] = assay: Inhibition of TNF-alpha/IFN-gamma-induced apoptosis in human HaCaT cells after 24 hrs by Annexin V-FITC/propidium iodide double staining-based flow cytometry; type: functional, cell-based
HaCaT [2] = assay: Cytotoxicity against human HaCaT cells assessed as reduction in cell viability after 24 hrs by MTT assay; type: cell-based
Mus musculus [3] = assay: Protection against DNCB-induced skin inflammation in BALB/c mouse model of atopic dermatitis assessed as reduction in skin erythema at 0.1 g/ml administered topically once daily for 16 days measured post last dose; type: functional, organism-based
HaCaT [4] = assay: Inhibition of TNFalpha/IFN-gamma-induced apoptosis in human HaCaT cells assessed as change in mitochondrial membrane potential at 500 ug/ml after 24 hrs by DiOC6 probe based flow cytometric analysis (reference value: 15.36 +/- 0.76); type: functional
HaCaT [5] = assay: Inhibition of TNFalpha/IFN-gamma-induced apoptosis in human HaCaT cells assessed as rounded nuclei with sharp edges at 500 to 1500 ug/ml after 24 hrs by Hoechst staining based fluorescence microscopic analysis; type: functional, cell-based
HaCaT [6] = assay: Inhibition of TNFalpha/IFN-gamma-induced apoptosis in human HaCaT cells assessed as increase in cytochrome C expression at 500 ug/ml after 24 hrs by Western blot analysis; type: functional, cell-based
Mus musculus [7] = assay: Protection against DNCB-induced skin inflammation in BALB/c mouse model of atopic dermatitis assessed as reduction in IL4 level at 0.1 g/ml administered topically once daily for 16 days measured post last dose by ELISA; type: functional, organism-based
Mus musculus [8] = assay: Protection against DNCB-induced skin inflammation in BALB/c mouse model of atopic dermatitis assessed as reduction in skin erosion at 0.1 g/ml administered topically once daily for 16 days measured post last dose; type: functional, organism-based
HaCaT [9] = assay: Inhibition of TNFalpha/IFN-gamma-induced apoptosis in human HaCaT cells assessed as increase in Bid expression at 500 ug/ml after 24 hrs by Western blot analysis; type: functional, cell-based
Mus musculus [10] = assay: Protection against DNCB-induced skin inflammation in BALB/c mouse model of atopic dermatitis assessed as number of caspase-3 positive cells at 0.1 g/ml administered topically once daily for 16 days measured post last dose by […] based light microscopic analysis (reference value: 1054 +/- 74.9); type: functional
HaCaT [11] = assay: Inhibition of TNFalpha/IFN-gamma-induced apoptosis in human HaCaT cells assessed as increase in caspase 7 expression at 500 ug/ml after 24 hrs by Western blot analysis; type: functional, cell-based
Mus musculus [12] = assay: Protection against DNCB-induced skin inflammation in BALB/c mouse model of atopic dermatitis assessed as reduction in dermal edema at 0.1 g/ml administered topically once daily for 16 days measured post last dose; type: functional, organism-based
HaCaT [13] = assay: Induction of apoptosis in human HaCaT cells at 500 to 1500 ug/ml after 24 hrs by Hoechst staining based fluorescence microscopic analysis; type: cell-based
HaCaT [14] = assay: Inhibition of TNFalpha/IFN-gamma-induced apoptosis in human HaCaT cells assessed as increase in caspase 3 expression at 500 ug/ml after 24 hrs by Western blot analysis; type: functional, cell-based
HaCaT [15] = assay: Inhibition of TNFalpha/IFN-gamma-induced apoptosis in human HaCaT cells assessed as increase in caspase 9 expression at 500 ug/ml after 24 hrs by Western blot analysis; type: functional, cell-based
HaCaT [16] = assay: Inhibition of TNFalpha/IFN-gamma-induced apoptosis in human HaCaT cells assessed as increase in cathepsin B expression at 500 ug/ml after 24 hrs by Western blot analysis; type: functional, cell-based
Mus musculus [17] = assay: Protection against DNCB-induced skin inflammation in BALB/c mouse model of atopic dermatitis assessed as reduction in hair follicle disappearance at 0.1 g/ml administered topically once daily for 16 days measured post last dose; type: functional, organism-based
HaCaT [18] = assay: Inhibition of TNF-alpha/IFN-gamma-induced apoptosis in human HaCaT cells assessed as apoptotic rate at 1500 ug/ml after 24 hrs by Annexin V-FITC/propidium iodide double staining-based flow cytometry (reference value: 42.9%); type: functional; design: scale not given: the % may be the effect or the level left
HaCaT [19] = assay: Inhibition of TNFalpha/IFN-gamma-induced apoptosis in human HaCaT cells assessed as increase in caspase 8 expression at 500 ug/ml after 24 hrs by Western blot analysis; type: functional, cell-based
Mus musculus [20] = assay: Protection against DNCB-induced skin inflammation in BALB/c mouse model of atopic dermatitis assessed as reduction in spleen index at 0.1 g/ml administered topically once daily for 16 days measured post last dose; type: functional, organism-based
Mus musculus [21] = assay: Protection against DNCB-induced skin inflammation in BALB/c mouse model of atopic dermatitis assessed as reduction in IgE level at 0.1 g/ml administered topically once daily for 16 days measured post last dose by ELISA; type: functional, organism-based
Mus musculus [22] = assay: Protection against DNCB-induced skin inflammation in BALB/c mouse model of atopic dermatitis assessed as reduction in skin dryness at 0.1 g/ml administered topically once daily for 16 days measured post last dose; type: functional, organism-based
HaCaT [23] = assay: Inhibition of TNFalpha/IFN-gamma-induced apoptosis in human HaCaT cells assessed as increase in mitochondrial membrane potential after 24 hrs by DiOC6 probe based flow cytometric analysis; type: functional, cell-based
[24] = Toxicity in DNCB-induced skin inflammation in BALB/c mouse model of atopic dermatitis assessed as effect on organs at 0.1 g/ml administered topically once daily for 16 days; settings: in vivo, topical_or_ocular, 384 h

COc1cc2c(cc1OC)-c1cc3ccc4c(c3c[n+]1CC2)OCO4
inhibition (HaCaT [1]): inactive
Activity (HaCaT [2]): Toxic

c1c2c(cc3c1OCO3)-c1cc3ccc4c(c3c[n+]1CC2)OCO4 [COPTISINE]
inhibition (HaCaT [1]): inactive
Activity (HaCaT [2]): Toxic

COc1ccc2c(c1O)-c1c(O)c(OC)cc3c1[C@H](C2)[N+](C)(C)CC3 [MAGNOFLORINE]
Activity (Mus musculus [3]): Active
inhibition (HaCaT [1]): Dose-dependent effect
Activity (HaCaT [4]): 12.66
inhibition (HaCaT [5]): Active
inhibition (HaCaT [6]): Active
Activity (Mus musculus [7]): Active
Activity (Mus musculus [8]): Active
inhibition (HaCaT [9]): Active
Activity (Mus musculus [10]): 509.8
inhibition (HaCaT [11]): Active
Activity (Mus musculus [12]): Active
Activity (HaCaT [13]): Non-Toxic
inhibition (HaCaT [14]): Active
inhibition (HaCaT [15]): Active
inhibition (HaCaT [16]): Active
Activity (Mus musculus [17]): Active
Activity (HaCaT [18]): 22.1%
inhibition (HaCaT [19]): Active
Activity (Mus musculus [20]): Active
Activity (Mus musculus [21]): Active
Activity (Mus musculus [22]): Active
Activity (HaCaT [2]): Non-Toxic
inhibition (HaCaT [23]): Dose-dependent effect
Activity [24]: Non-Toxic

COc1cc2c(cc1O)CC[n+]1cc3c(OC)c(OC)ccc3cc1-2 [JATRORRHIZINE]
inhibition (HaCaT [1]): inactive
Activity (HaCaT [2]): Toxic

COc1cc2c(cc1O)-c1cc3ccc(OC)c(OC)c3c[n+]1CC2 [COLUMBAMINE]
inhibition (HaCaT [1]): inactive
Activity (HaCaT [2]): Toxic

COc1cc2c(cc1OC)-c1cc3ccc(OC)c(OC)c3c[n+]1CC2 [PALMITINE]
inhibition (HaCaT [1]): inactive
Activity (HaCaT [2]): Toxic

COc1ccc2cc3[n+](cc2c1OC)CCc1cc2c(cc1-3)OCO2 [BERBERINE]
inhibition (HaCaT [1]): inactive
Activity (HaCaT [2]): Toxic
